# Test results from patent US11667652B2, “MCL1 inhibitors” (Gilead Sciences, Inc., priority 2019, dated 2023).
# Like-named read-outs stand apart in the source and are kept apart here.
# What was measured:
# MCL1/Bim = MCL1/Bim (Homo sapiens (Human), UniProt Q07820); test: MCL1/Bim Binding AlphaLISA Assay; details: recombinant human 6xHis-MCL1 (171-327), biotinylated Bim peptide (51-76)
# In short: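 AlphaLISA with 0.0625 nM human 6×His-MCL1 (171-327) and 0.0625 nM biotinylated Bim (51-76) peptide in 20 mM Hepes pH 7.5, 150 mM NaCl, 0.002% Brij 35, 1 mM DTT, 0.01% BSA. Compound preincubated with MCL1 1 h, Bim added 2 h, then acceptor and donor beads 1 h each; % inhibition versus DMSO and no-protein/peptide controls.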
# SKBR3 cells = test: SKBR3 Cell Viability Assay; assay type: cell-based; details: CellTiter Glo, read-out: MCL1 CV SKBR3 EC50
# Protocol: SKBR3 Cell Viability Assay Materials
# SKBR3 Cells (ATCC HTB-30) were obtained from ATCC (Manassas, Va.) and cultured in McCoy 5A's medium (ATCC 30-2007)+10% fetal bovine serum (SH30071.03, HyClone, Pittsburgh, Pa.) plus 1× Penicillin-Streptomycin L-glutamine (Corning 30-009-CI, Corning, N.Y.).
# The cell viability assay was conducted in a 384-well tissue culture plate (Grenier 781086, Monroe, N.C.) in a total volume of 70 μL. Test compounds were prepared in 1,000×, serially diluted, and pre-spotted into 384-well tissue culture plate by Echo 555 Liquid Handler (Labcyte Inc., San Jose, Calif.). Seventy μL of 6,000 SKBR3 cells were dispensed into each well of the plate and incubated at 37° C. with 5% CO2 for 72 hours. At the end of incubation, 2× CellTiter Glo (CTG) reagents (1 part buffer with 2 parts substrate) (Promega, Madison, Wis.) were prepared, and the plate and the reagent were equilibrated to room temperature for 30 minutes. CTG reagent was added to each plate by Biomek FX at 20 μL/well with 5 times pipetting and mixing to induce cell lysis. Luminescence was read by Envision multimode reader (PerkinElmer). Percent inhibition was calculated as followed: % Inhibition=100%*(Well−Neg)/(Pos−Neg) Neg, negative control, DMSO Pos, positive control, 10 μM Puromycin
# [1] = Homo sapiens, SK-BR-3, 72 hours
# MCL1/Bim, sequence (Q07820 171-327): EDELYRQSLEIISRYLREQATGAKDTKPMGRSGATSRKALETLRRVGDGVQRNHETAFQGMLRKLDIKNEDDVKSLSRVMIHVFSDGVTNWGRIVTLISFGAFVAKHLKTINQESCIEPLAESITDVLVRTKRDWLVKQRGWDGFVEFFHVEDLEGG
SMILES,IC50 (MCL1/Bim) [nM],EC50 (SKBR3 cells; 72 hours) [nM],EC50 (SKBR3 cells; [1]) [nM]
COc1nn(C)cc1C(=O)N[S@@]1(=O)=NC(=O)c2ccc3c(c2)N(C[C@@H]2CC[C@H]2/C=C/[C@@H](O)[C@H](NC(C)=O)[C@H](C)C1)C[C@@]1(CCCc2cc(Cl)ccc21)CO3 [Example 119],0.035,244,
COc1nn(C)cc1C(=O)N[S@@]1(=O)=NC(=O)c2ccc3c(n2)N(C[C@@H]2CC[C@H]2[C@@H](OC)/C=C/[C@H](O)[C@H](C)C1)C[C@@]1(CCCc2cc(Cl)ccc21)CO3 (mixture of isomers) [Example 196],0.04,,81.4
COc1nn(C)cc1C(=O)N[S@@]1(=O)=NC(=O)c2ccc3c(c2)N(C[C@@H]2CC[C@H]2[C@@H](OC)/C=C/[C@H](OCc2ncccn2)[C@H](C)C1)C[C@@]1(CCCc2cc(Cl)ccc21)CO3 [Example 74],0.06,,187
COc1nn(C)cc1C(=O)N[S@@]1(=O)=NC(=O)c2ccc3c(c2)N(C[C@@H]2CC[C@H]2[C@@H](OC)/C=C/[C@H](OCc2cn(C)cn2)[C@H](C)C1)C[C@@]1(CCCc2cc(Cl)ccc21)CO3 [Example 85],0.085,,164
C[C@H]1C/C=C/[C@H](OC(=O)c2cnn(C)c2)[C@@H]2CC[C@H]2CN2C[C@@]3(CCCc4cc(Cl)ccc43)COc3ccc(cc32)C(=O)N=[S@](=O)(NC(=O)c2cnn(C)c2)C1 [Example 51],0.222,,433
COc1nn(C)cc1C(=O)N[S@@]1(=O)=NC(=O)c2ccc3c(c2)N(C[C@@H]2CC[C@H]2[C@@H](OC)C[C@@H]2[C@H](OC[C@@H]2C)[C@H](C)C1)C[C@@]1(CCCc2ccccc21)CO3 [Example 148],0.426,1720,
COc1nn(C)cc1C(=O)N[S@@]1(=O)=NC(=O)c2ccc3c(c2)N(C[C@@H]2CC[C@H]2/C=C/[C@@H]2OCCO[C@@H]2[C@H](C)C1)C[C@@]1(CCCc2cc(Cl)ccc21)CO3 [Example 153],0.189,1000,
COc1nn(C)cc1C(=O)N[S@@]1(=O)=NC(=O)c2ccc3c(c2)N(C[C@@H]2CC[C@H]2[C@@H](OCCCN2CCOCC2)/C=C/C[C@H](C)C1)C[C@@]1(CCCc2cc(Cl)ccc21)CO3 [Example 53],0.105,21.7,
COc1nn(C)cc1C(=O)N[S@@]1(=O)=NC(=O)c2ccc3c(c2)N(C[C@@H]2CC[C@H]2[C@H]2OC(=O)C[C@@H]2CC[C@H](C)C1)C[C@@]1(CCCc2cc(Cl)ccc21)CC3 [Example 151],0.056,,422
COc1nn(C)cc1C(=O)N[S@@]1(=O)=NC(=O)c2ccc3c(c2)N(C[C@@H]2CC[C@H]2[C@@H](OC)/C=C/[C@@](C)(OC)[C@H](C)C1)C[C@@]1(CCCc2cc(Cl)ccc21)CO3 [Example 122],0.03,,17.7
COc1nn(C)cc1C(=O)N[S@@]1(=O)=NC(=O)c2ccc3c(c2F)N(C[C@@H]2CC[C@H]2[C@@H](OC)/C=C/C[C@H](C)C1)C[C@@]1(CCCc2cc(Cl)ccc21)CO3 [Example 161],0.089,,33.8
CCCO[C@H]1/C=C/C[C@H](C)C[S@@](=O)(NC(=O)c2cn(C)nc2OC)=NC(=O)c2ccc3c(c2)N(C[C@@H]2CC[C@H]21)C[C@@]1(CCCc2cc(Cl)ccc21)CO3 (mixture of isomers) [Example 137],1.77,561,
CC[C@@H]1CC/C=C/[C@H](OC)[C@@H]2CC[C@H]2CN2C[C@@]3(CCCc4cc(Cl)ccc43)COc3ccc(cc32)C(=O)N=S1(=O)NC(=O)COC1CCOCC1 (some centres unmarked) [Example 40],0.101,326,
COc1nn(C)cc1C(=O)N[S@@]1(=O)=NC(=O)c2ccc3c(c2)N(C[C@@H]2CC[C@H]2[C@@H](OC)C[C@H]2CCO[C@@H]2CC1)C[C@@]1(CCCc2cc(Cl)ccc21)CO3 [Example 160],0.214,,331
CO[C@H]1/C=C/C[C@H](C)C[S@@](=O)(NC(=O)c2cn(C)c(=O)n2C)=NC(=O)c2ccc3c(c2)N(C[C@@H]2CC[C@H]21)C[C@@]1(CCCc2cc(Cl)ccc21)CO3 [Example 208],0.13,,140
CO[C@H]1/C=C/C[C@H](C)C[S@@](=O)(NC(=O)c2cc3n(c2)CCOC3)=NC(=O)c2ccc3c(c2)N(C[C@@H]2CC[C@H]21)C[C@]1(CO3)C[C@@H]2C[C@@H]2c2cc(Cl)ccc21 [Example 168],0.233,,94
COc1nn(C)cc1C(=O)N[S@@]1(=O)=NC(=O)c2ccc3c(c2)N(C[C@@H]2CC[C@H]2[C@@H](OC)C#C[C@H](OC)[C@H](C)C1)C[C@@]1(CCCc2cc(Cl)ccc21)CO3 [Example 72],0.309,294,
COc1nn(C)cc1C(=O)N[S@@]1(=O)=NC(=O)c2ccc3c(c2)N(C[C@@H]2CC[C@H]2[C@@H](OC)/C=C/C(O)(CC(=O)N(C)C)[C@H](C)C1)C[C@@]1(CCCc2cc(Cl)ccc21)CO3 (mixture of isomers) [Example 124],0.033,,10.1
CO[C@H]1/C=C/C[C@H](C)C[S@@](=O)(NC(=O)c2cn(C)nc2C#CC(C)(C)O)=NC(=O)c2ccc3c(c2)N(C[C@@H]2CC[C@H]21)C[C@@]1(CCCc2cc(Cl)ccc21)CO3 [Example 209],0.04,,127
COc1nn(C)cc1C(=O)N[S@@]1(=O)=NC(=O)c2ccc3c(c2)N(C[C@@H]2CC[C@H]2[C@H]2O[C@H](CCN(C)C)C[C@@H]2CC[C@H](C)C1)C[C@@]1(CCCc2cc(Cl)ccc21)CO3 [Example 152],0.027,,51.4
COc1nn(C)cc1C(=O)N[S@@]1(=O)=NC(=O)c2ccc3c(c2)N(C[C@@H]2CC[C@H]2[C@@H](OC)/C=C/[C@](C)(OC)[C@H](C)C1)C[C@@]1(CCCc2cc(Cl)ccc21)CO3 [Example 123],0.135,,69.7
C[C@@H]1[C@@H](C)C/C=C/[C@H](O)[C@@H]2CC[C@H]2CN2C[C@@]3(CCCc4cc(Cl)ccc43)COc3ccc(cc32)C(=O)N=[S@]1(=O)Nc1ncnc2nn(C)cc12 [Example 34],0.088,,25.4
COc1nn(C)cc1C(=O)N[S@@]1(=O)=NC(=O)c2ccc3c(c2)N(C[C@@H]2CC[C@H]2[C@](O)(CC(=O)N(C)C)/C=C/C[C@H](C)C1)C[C@@]1(CCCc2cc(Cl)ccc21)CO3 [Example 96],0.075,1410,
CO[C@H]1/C=C/C[C@H](C)C[S@@](=O)(NC(=O)NCC2CC2)=NC(=O)c2ccc3c(c2)N(C[C@@H]2CC[C@H]21)C[C@]1(CO3)C[C@@H]2C[C@@H]2c2cc(Cl)ccc21 [Example 165],0.18,,369
COc1nn(C)cc1C(=O)N[S@@]1(=O)=NC(=O)c2ccc3c(c2)N(C[C@@H]2CC[C@H]2[C@@H](OC)/C=C/[C@H](OCCN2CC4(CN(C)C4)C2)[C@H](C)C1)C[C@@]1(CCCc2cc(Cl)ccc21)CO3 [Example 87],0.19,,1090
COc1nn(C)cc1C(=O)N[S@@]1(=O)=NC(=O)c2ccc3c(c2)N(C[C@@H]2CC[C@H]2[C@@](CN2CCN(C4COC4)CC2)(OC)/C=C/C[C@H](C)C1)C[C@@]1(CCCc2cc(Cl)ccc21)CO3 [Example 116],0.102,,13.4
COc1nn(C)cc1C(=O)N[S@@]1(=O)=NC(=O)c2ccc3c(c2)N(C[C@@H]2CC[C@H]2[C@H](OC)[C@@H](OC)/C=C\[C@H](C)C1)C[C@@]1(CCCc2cc(Cl)ccc21)CO3 [Example 132],0.833,,1020
CC[C@H]1C/C=C/[C@H](OC)[C@@H]2CC[C@H]2CN2C[C@@]3(CCCc4cc(Cl)ccc43)COc3ccc(cc32)C(=O)N=[S@](=O)(NC(=O)NC2CC2)C1 [Example 42],0.253,233,
